Patent US10588317B2, “Isoxazoline-substituted benzamides and analogues as insecticides” (priority 2015, dated 2020)
Read-outs that look alike come from different tables or passages of the source.

What was measured:
Format in all cases: in vivo
[1] = tested on: Euschistus heros; test: Euschistus heros (neotropical brown stink bug), sprayed soybean leaves; conditions: 120 h, application rate 200 ppm, N2 nymphs, 5 days after infestation, read-out: effect in at least one of the two categories (mortality or growth inhibition)
Method: Soybean leaves on agar in 24-well microtiter plates were sprayed with aqueous test solutions prepared from 10'000 ppm DMSO stock solutions. After drying the leaves were infested with N2 nymphs. The samples were assessed for mortality and growth inhibition in comparison to untreated samples 5 days after infestation.
(§1) The following compounds gave an effect of at least 80% in at least one of the two categories (mortality or growth inhibition) at an application rate of 200 ppm: […]

[2] = tested on: Diabrotica balteata; test: Diabrotica balteata (corn root worm), sprayed maize sprouts; conditions: 96 h, application rate 200 ppm, L2 larvae, 4 days after infestation, read-out: effect in at least one of the two categories (mortality or growth inhibition)
Method: Maize sprouts placed onto an agar layer in 24-well microtiter plates were treated with aqueous test solutions prepared from 10'000 ppm DMSO stock solutions by spraying. After drying, the plates were infested with L2 larvae (6 to 10 per well). The samples were assessed for mortality and growth inhibition in comparison to untreated samples 4 days after infestation.
as §1

[3] = tested on: Spodoptera littoralis; test: Spodoptera littoralis (Egyptian cotton leaf worm), sprayed cotton leaf discs; conditions: foliar, 72 h, read-out: control (mortality, anti-feeding effect, growth inhibition)
Method: Cotton leaf discs were placed onto agar in 24-well microtiter plates and sprayed with aqueous test solutions prepared from 10'000 ppm DMSO stock solutions. After drying the leaf discs were infested with five L1 larvae. The samples were assessed for mortality, anti-feeding effect, and growth inhibition in comparison to untreated samples 3 days after infestation. Control of Spodoptera littoralis by a test sample is given when at least one of the categories mortality, anti-feedant effect, and growth inhibition is higher than the untreated sample.

[4] = tested on: Thrips tabaci; test: Thrips tabaci (onion thrips): feeding/contact activity; conditions: 144 h
Method: Sunflower leaf discs were placed on agar in 24-well microtiter plates and sprayed with aqueous test solutions prepared from 10'000 ppm DMSO stock solutions. After drying the leaf discs were infested with a Thrips population of mixed ages. The samples were assessed for mortality 6 days after infestation.

[5] = tested on: Tetranychus urticae; test: Tetranychus urticae (two-spotted spider mite): feeding/contact activity; conditions: 192 h, application rate 200 ppm, mixed population (mobile stages), 8 days after infestation, read-out: mortality
Method: Bean leaf discs on agar in 24-well microtiter plates were sprayed with aqueous test solutions prepared from 10'000 ppm DMSO stock solutions. After drying the leaf discs were infested with a mite population of mixed ages. The samples were assessed for mortality on mixed population (mobile stages) 8 days after infestation.

[6] = tested on: Plutella xylostella; test: Plutella xylostella (diamond back moth), artificial diet; conditions: 120 h, read-out: effect in at least one of the two categories (mortality or growth inhibition); for percent effect (mortality or growth inhibition) at 200 ppm: application rate 200 ppm, L2 larvae, 5 days after infestation
Method: 24-well microtiter plates with artificial diet were treated with aqueous test solutions prepared from 10'000 ppm DMSO stock solutions by pipetting. After drying, the plates were infested with L2 larvae (10 to 15 per well). The samples were assessed for mortality and growth inhibition in comparison to untreated samples 5 days after infestation.
as §1

[7] = application rate 200 ppm, L1 larvae, 3 days after infestation
[8] = application rate 200 ppm, Thrips population of mixed ages, 6 days after infestation, read-out: mortality

Cc1cc(C2=NO[C@@](c3cc(Cl)c(F)c(Cl)c3)(C(F)(F)F)C2)ccc1C(=O)NC1CON(S(=O)(=O)c2ccc(Cl)cc2)C1 (stereo partly drawn) [Compound A2, N-[2-(4-chlorophenyl)sulfonylisoxazolidin-4-yl]-4-[(5S)-5-(3,5-dichloro-4-fluoro-phenyl)-5-(trifluoromethyl)-4H-isoxazol-3-yl]-2-methyl-benzamide]
≥ 80%: percent effect (mortality or growth inhibition) at 200 ppm [1] | percent effect (mortality or growth inhibition) at 200 ppm [2] | mortality at 200 ppm [3, 7] | mortality at 200 ppm [4, 8] | mortality at 200 ppm [5] | percent effect (mortality or growth inhibition) at 200 ppm [6]

Cc1cc(C2=NO[C@](c3cc(Cl)cc(Cl)c3)(C(F)(F)F)C2)ccc1C(=O)N[C@H]1CON(S(=O)(=O)CC#N)C1 [Compound A165, N-[(4R)-2-(cyanomethylsulfonyl)-1,2-oxazolidin-4-yl]-4-[(5R)-5-(3,5-dichlorophenyl)-5-(trifluoromethyl)-4H-1,2-oxazol-3-yl]-2-methylbenzamide]
≥ 80%: percent effect (mortality or growth inhibition) at 200 ppm [1] | percent effect (mortality or growth inhibition) at 200 ppm [2] | mortality at 200 ppm [3, 7] | mortality at 200 ppm [4, 8] | mortality at 200 ppm [5] | percent effect (mortality or growth inhibition) at 200 ppm [6]

Cc1cc(C2=NOC(c3ccnc(F)c3)(C(F)(F)F)C2)ccc1C(=O)NC1CON(S(C)(=O)=O)C1 (stereo not shown) [Compound A54]
≥ 80%: percent effect (mortality or growth inhibition) at 200 ppm [1] | percent effect (mortality or growth inhibition) at 200 ppm [2] | mortality at 200 ppm [3, 7] | mortality at 200 ppm [5] | percent effect (mortality or growth inhibition) at 200 ppm [6]

Cc1cc(C2=NOC(c3ccc(OC(F)(F)F)cc3)(C(F)(F)F)C2)ccc1C(=O)NC1CON(S(C)(=O)=O)C1 (stereo not shown) [Compound A53]
≥ 80%: percent effect (mortality or growth inhibition) at 200 ppm [2] | mortality at 200 ppm [3, 7] | mortality at 200 ppm [5] | percent effect (mortality or growth inhibition) at 200 ppm [6]

CNC(=O)CS(=O)(=O)N1C[C@H](NC(=O)c2ccc(C3=NO[C@@](c4cc(Cl)cc(Cl)c4)(C(F)(F)F)C3)cc2C)CO1 [Compound A201]
≥ 80%: percent effect (mortality or growth inhibition) at 200 ppm [1] | percent effect (mortality or growth inhibition) at 200 ppm [2] | mortality at 200 ppm [3, 7] | mortality at 200 ppm [5] | percent effect (mortality or growth inhibition) at 200 ppm [6]

CNS(=O)(=O)N1C[C@H](NC(=O)c2ccc(C3=NO[C@@](c4ccc(C(F)(F)F)c(F)c4)(C(F)(F)F)C3)cc2C)CO1 [Compound A182]
≥ 80%: percent effect (mortality or growth inhibition) at 200 ppm [2] | mortality at 200 ppm [3, 7] | mortality at 200 ppm [4, 8] | mortality at 200 ppm [5] | percent effect (mortality or growth inhibition) at 200 ppm [6]

CS(=O)(=O)N1CC(NC(=O)c2ccc(C3=NOC(c4cc(Cl)cc(Cl)c4)(C(F)(F)F)C3)cn2)CO1 (stereo not shown) [Compound A238]
≥ 80%: mortality at 200 ppm [3, 7]

Cc1nc(C2=NOC(c3cc(Cl)cc(Cl)c3)(C(F)(F)F)C2)ccc1C(=O)NC1CON(S(C)(=O)=O)C1 (stereo not shown) [Compound A237]
≥ 80%: percent effect (mortality or growth inhibition) at 200 ppm [2] | mortality at 200 ppm [3, 7] | percent effect (mortality or growth inhibition) at 200 ppm [6]

CS(=O)(=O)N1CC(NC(=O)c2cnc(C3=NOC(c4cc(Cl)cc(Cl)c4)(C(F)(F)F)C3)c3ccccc23)CO1 (stereo not shown) [Compound A239]
≥ 80%: percent effect (mortality or growth inhibition) at 200 ppm [1] | percent effect (mortality or growth inhibition) at 200 ppm [2] | mortality at 200 ppm [3, 7] | mortality at 200 ppm [4, 8] | percent effect (mortality or growth inhibition) at 200 ppm [6]

Cc1cc(C2=NO[C@@](c3cc(Cl)c(Cl)c(Cl)c3)(C(F)(F)F)C2)ccc1C(=O)NC1CON(S(C)(=O)=O)C1 (stereo partly drawn) [Compound A26, 2-methyl-N-(2-methylsulfonylisoxazolidin-4-yl)-4-[(5S)-5-(3,4,5-trichlorophenyl)-5-(trifluoromethyl)-4H-isoxazol-3-yl]benzamide]
≥ 80%: percent effect (mortality or growth inhibition) at 200 ppm [1]

Cc1cc(Cl)cc(C2(C(F)(F)F)CC(c3ccc(C(=O)NC4CON(S(C)(=O)=O)C4)c(C)c3)=NO2)c1 (stereo not shown) [Compound A51]
≥ 80%: percent effect (mortality or growth inhibition) at 200 ppm [2] | mortality at 200 ppm [3, 7] | mortality at 200 ppm [4, 8] | mortality at 200 ppm [5] | percent effect (mortality or growth inhibition) at 200 ppm [6]

Cc1cc(C2=NO[C@](c3ccc(C(F)(F)F)c(F)c3)(C(F)(F)F)C2)ccc1C(=O)N[C@@H]1CON(S(=O)(=O)N(C)C)C1 [Compound A171]
≥ 80%: percent effect (mortality or growth inhibition) at 200 ppm [2] | mortality at 200 ppm [3, 7] | mortality at 200 ppm [4, 8] | mortality at 200 ppm [5] | percent effect (mortality or growth inhibition) at 200 ppm [6]

Cc1cc(C2=NO[C@@](c3ccc(C(F)(F)F)c(F)c3)(C(F)(F)F)C2)ccc1C(=O)N[C@H]1CON(S(C)(=O)=O)C1 [Compound A170]
≥ 80%: percent effect (mortality or growth inhibition) at 200 ppm [2] | mortality at 200 ppm [3, 7] | mortality at 200 ppm [4, 8] | mortality at 200 ppm [5] | percent effect (mortality or growth inhibition) at 200 ppm [6]

CS(=O)(=O)N1CC(NC(=O)c2ccc(C3=NOC(c4cc(Cl)cc(Cl)c4)(C(F)(F)F)C3)cc2C#N)CO1 (stereo not shown) [Compound A47]
≥ 80%: mortality at 200 ppm [3, 7]

CS(=O)(=O)N1CC(NC(=O)c2ccc(C3=NOC(c4cc(Cl)cc(Cl)c4)(C(F)(F)F)C3)c3ncccc23)CO1 (stereo not shown) [Compound A56]
≥ 80%: mortality at 200 ppm [3, 7] | percent effect (mortality or growth inhibition) at 200 ppm [6]

C=CS(=O)(=O)N1C[C@H](NC(=O)c2ccc(C3=NO[C@@](c4cc(Cl)cc(Cl)c4)(C(F)(F)F)C3)cc2C)CO1 [Compound A175]
≥ 80%: mortality at 200 ppm [3, 7]

Cc1cc(C2=NOC(c3cc(C(F)(F)F)ccn3)(C(F)(F)F)C2)ccc1C(=O)N[C@H]1CON(S(C)(=O)=O)C1 (stereo partly shown) [Compound A222]
≥ 80%: percent effect (mortality or growth inhibition) at 200 ppm [2] | mortality at 200 ppm [3, 7] | mortality at 200 ppm [5] | percent effect (mortality or growth inhibition) at 200 ppm [6]

Cc1cc(C2=NO[C@](c3cc(Cl)cc(Cl)c3)(C(F)(F)F)C2)ccc1C(=O)N[C@H]1CON(S(=O)(=O)CCBr)C1 [Compound A177, N-[(4R)-2-(2-bromoethylsulfonyl)-1,2-oxazolidin-4-yl]-4-[(5R)-5-(3,5-dichlorophenyl)-5-(trifluoromethyl)-4H-1,2-oxazol-3-yl]-2-methylbenzamide]
≥ 80%: mortality at 200 ppm [3] | mortality at 200 ppm [4] | percent control (mortality or growth inhibition) at 200 ppm [6]

Cc1cc(C2=NOC(c3ccc(Br)cc3)(C(F)(F)F)C2)ccc1C(=O)NC1CON(S(C)(=O)=O)C1 (stereo not shown) [Compound A55]
≥ 80%: percent effect (mortality or growth inhibition) at 200 ppm [2] | mortality at 200 ppm [3, 7] | mortality at 200 ppm [4, 8] | mortality at 200 ppm [5] | percent effect (mortality or growth inhibition) at 200 ppm [6]

C=CS(=O)(=O)N1C[C@@H](NC(=O)c2ccc(C3=NO[C@@](c4cc(Cl)c(F)c(Cl)c4)(C(F)(F)F)C3)cc2C)CO1 [Compound A193, 4-[(5S)-5-(3,5-dichloro-4-fluorophenyl)-5-(trifluoromethyl)-4H-1,2-oxazol-3-yl]-N-[(4R)-2-ethenylsulfonyl-1,2-oxazolidin-4-yl]-2-methylbenzamide]
≥ 80%: mortality at 200 ppm [3, 7] | mortality at 200 ppm [4, 8] | mortality at 200 ppm [5] | percent effect (mortality or growth inhibition) at 200 ppm [6]
